In US20060241178A1, “Compositions and methods for treating lung cancer” (priority 2002, published 2006):
Entries after “also recorded” stand apart in the source; their conditions may differ. Where two headings read alike, the source gives them in different places. Marks after values point to notes of the source that are not given here.

How the values were obtained:
[1] = Stability of conjugates in AIN-76A diet (methanol extraction, HPLC); type: physicochemical; details: stored at 4° C. under nitrogen
Method: The ITC conjugates were incorporated (15 μmol/g diet) into AIN-76A diets (5% corn oil) by mixing with dextrose prior to diet preparation. […] After mixing with dextrose, the solvent was removed using a rotary evaporator and further dried using a vacuum pump (2-3 h). Diets were prepared in 1-2 kg batches, and were stored at 4° C. in a container purged with nitrogen. […] Stability was determined by extraction of 0.5 g portions of the diet with 2.5 ml methanol (2×). The methanol extracts were combined and a 1 ml aliquot was filtered using a 0.47 μm syringe filter.

[2] = tested on: B(a)P-induced lung adenoma; assay: Tumor bioassay: B(a)P-induced lung tumorigenesis, ITC-NAC conjugates in diet during post-initiation phase
Method: The ITC conjugates were incorporated (15 μmol/g diet) into AIN-76A diets (5% corn oil) by mixing with dextrose prior to diet preparation. The conjugates, 9.36 g BITC-NAC (15 mmol) or 9.79 g PEITC-NAC (15 mmol), were dissolved in 50 ml ethyl acetate, and then mixed with 200 g dextrose to ensure even coating of dextrose particles. After mixing with dextrose, the solvent was removed using a rotary evaporator and further dried using a vacuum pump (2-3 h). Diets were prepared in 1-2 kg batches, and were stored at 4° C. in a container purged with nitrogen. […] Stability was determined by extraction of 0.5 g portions of the diet with 2.5 ml methanol (2×). The methanol extracts were combined and a 1 ml aliquot was filtered using a 0.47 μm syringe filter. A 10 μl sample was then analyzed on HPLC (Jiao, et al., Chem. Res. Toxicol., 9: 932-938, 1996).
Tumor Bioassay: Female strain A mice (Jackson Laboratories, Bar Harbor, Me.) of four weeks of age were housed under quarantine in polycarbonate cages (5 mice/cage) and provided modified AIN 76A diet (5% corn oil) and acidified drinking water ad libitum. The mice were maintained on a 12 h light: 12 h dark regimen at 22±5° C. and 50±20% relative humidity. After one week, the mice were weighed, and distributed into four groups containing 30 to 35 mice on the basis of body weight. At seven weeks of age, the mice in groups 1-3 were gavaged with a single dose of 20 μmol B(a)P in 0.2 ml cottonseed oil; group 4 received the vehicle only. Two days after dosing with the carcinogen, diets containing BITC-NAC (15 μmol/g, Group 2) and PEITC-NAC (15 μmol/g, Group 3) were provided. Groups 1 (B[a]P control) and 4 (vehicle only) remained on the modified AIN-76A diet with 5% corn oil. Tap water was provided ad libitum during the course of the bioassay. Mice were observed daily; diets were replenished on the fourth day of the week, and completely replaced on the seventh day. Mice were weighed weekly for four weeks, then monthly and at termination. At 84 days after B(a)P dosing, four mice per group were killed (CO2, cervical dislocation) to harvest lung tissues for molecular and immunohistochemical studies and to quantify lung adenomas, if present. At 140 days after B(a)P, the remaining mice in each group were killed. The number of lung tumors was recorded; lobes of lungs were placed in 10% phosphate buffered formalin for histological and immunohistochemical analysis. The remaining lung lobes were snap frozen in liquid nitrogen.
Mean tumor multiplicity and body weights at each time point were compared between groups using Student's T test.

[3] = tested on: alveolar epithelium cells of lung; assay: In situ end-labeling (ISEL/TUNEL) of apoptosis in lung sections; type: in vivo, A/J mice
p53 [4] = assay: Western blot of lung proteins: p53 expression and phosphorylation; type: in vivo, A/J mice; details: lungs at termination of the bioassay
JNK 1 and 2 = assay: Western blot of lung total proteins: JNK phosphorylation; type: in vivo, A/J mice; details: lung tissue 21 days after B(a)P
[5] = tested on: NNK/B(a)P-induced lung adenomas and adenocarcinomas; details: for mean numbers of lung adenomas compared with carcinogen control mice: at termination; for Adenocarcinoma Incidence (%) / Adenocarcinoma Multiplicity mean ± SD / Adenoma Incidence (%) / Adenoma Multiplicity mean ± SD: preliminary
Method: The test compounds were given in the diet on week 21 after beginning of a weekly dose of a mixture of NNK/B(a)P: 3 μmol each (621 μg NNK and 756 μg B(a)P) in 0.1 ml cottonseed oil for eight weeks (a total of 8 doses) (groups 1 to 10); only vehicle (cottonseed oil) for groups 11 to 15. Animals were then given experimental diet for 20 weeks until week 40. Four mice in groups 1, 2, 4, 6, 8, and 10 (see Table 1) were sacrificed on weeks 20, 38, and 40. The bioassay was terminated on week 52. If sufficient numbers of tumors were developed in mice killed on week 40, the bioassay was terminated at week 40. Tumors (adenomas and carcinomas) were quantified by multiplicity and incidence. At sacrifice, livers and lungs were harvested and the tissues rinsed in autoclaved PBS, stored in labeled foil, and snap frozen in liquid nitrogen. These tissues both tumorous and non-tumorous were processed by histology for biomarker studies (TUNEL, PCNA,p53, […] kinases, etc.). Lungs were examined by histology at termination (52 week or 40 week) for adenomas and carcinomas).
In this study, the potential protective effects of ITCs and ITC-NACs against progression of lung adenomas to malignant tumors were investigated. Lung tumors were induced in A/J mice with 3 μmol B(a)P plus 3 μmol NNK (gavage once/wk, 8 wks); mice were maintained on AIN-76A semi-purified diets. […] Diets containing PEITC (phenethyl ITC) or SFN (sulforaphane), each at 3 mmol/kg and 1.5 mmol/kg diet; PEITC-NAC or SFN-NAC at 8 mmol/kg and 4 mmol/kg diet; and NAC at 8 mmol/kg diet were then provided to groups of 28 mice (high dose) or 20 mice (low dose) during weeks 20 to 40 after initiation. Four mice in each high dose treatment group were killed during weeks 28 and 40 to monitor tumor incidence and progression; lung tissues were used for molecular studies. Remaining mice were killed at 40 weeks for histopathological examination. […] To assess molecular events occurring during the treatments, lung RNA of mice treated with B(a)P+NNK/control diet and B(a)P+NNK/PEITC-NAC high dose diet was examined using a Mouse Cancer Pathway Finder Gene Array.

[6] = tested on: aberrant crypt foci in the colon; details: oral, after or independent of timing of azoxymethane; cited from earlier work
p53 [7] = details: mouse epidermal cell line, with accompanying apoptosis; cited from earlier work
[8] = tested on: p53 (−/−) mouse embryo fibroblasts; details: cited from earlier work
[9] = tested on: AP-1 binding activity in A549 cells; assay: EMSA of AP-1 binding activity in A549 cells; type: cell-based, human; design: AP-1 binding activity: dose or concentration left out as unconfirmed; details: for 24 h
Method: Cell Lines: The human lung adenocarcinoma cell line A549 was obtained from the American Type Culture Collection (ATCC) (Bethesda, Md.). […] Cells were grown at 37° C. with 5% CO2.
Reagents: The PEITC was obtained from Aldrich (Milwaukee, Wis.) and its N-acetylcysteine conjugate was synthesized in house by the Organic Synthesis Facility using the method described previously (Kassahun et al., Chem Res Toxicol 1997, 10(11):1228-33). Unless specified otherwise, the A549 cells were treated with 10 or 25 μM of PEITC-NAC. TPA (12-O-tetradecanoylphorbol-13-acetate) was purchased from Sigma (St. Louis, Mo.).
Electrophoretic Mobility Shift Assay (EMSA): Double-stranded oligonucleotides containing the consensus-binding site for AP-1 were purchased commercially (Santa Cruz Biotech). The oligos were labeled with γ-^32P-ATP (6000 Ci/mmol, Armeshem Pharmacia Biotech. Inc Piscataway, N.J.) using polynucleotide kinase (Promega, Madison, Wis.) according to standard procedures. The labeled DNA was incubated with 5 μg of total proteins (as specified in the Results section) for 10 min at room temperature, in the presence of 1 μg of poly d(I)-d(C) oligomer (Roche Molecular Biochemicals, Indianapolis, Ind.) and DNA-binding buffer as described previously (Yang et al., Cell Growth Differ 1993, 4(7):595-602). The complexes were then separated on a 7.5% polyacrylamide gel and autoradiographed.
Proteins Isolation: Cells were incubated in a 37° C. with 5% CO2, followed by mock or treatments specified in the results section. Total proteins were then isolated using RIPA buffer. The protease inhibitors aprotinin (1 μg/ml), leupeptin (1 μg/ml), pepstatin (1 μg/ml), phenylmethylsulfonyl fluoride (0.1 mM) and the phosphatase inhibitor Na3VO4 (1 mM), NaF (1 mM) were added to all buffers. The protein concentrations were determined using the Coomassie Plus Protein Assay Reagent (Pierce, Rockford, Ill.), and aliquots of the proteins were stored at −80° C.

A549 cells = assay: Apoptosis in A549 cells treated with TPA, PEITC-NAC or TPA plus PEITC-NAC (photography, DAPI staining); type: cell-based, human; details: 100 nM TPA
Text: Assay for single cell DNA strand breaks: A549 cells treated with or without TPA, PEITC-NAC or TPA plus PEITC-NAC were collected at the times specified in the text, cytocentrifuged and stained with 4′-6′diamidino-2-phenylindole (DAPI). The photographs were taken using an Olympus AX 70 microscope (Melville, N.Y.) with fluorescence and SPOT RT Slider digital image system (Diagnostic Instruments Inc., Sterling Heights, Mich.). Arrows indicated the typical apoptotic features of DNA strand breakage and nuclear fragmentation.
TPA (100 nM) was added to A549 cells 12 h prior to addition of PEITC-NAC, which was added 24 h before photography of cells, protein isolation, or DAPI staining. […] These cells were treated identically, but were stained with the DNA fluorochrome DAPI.

[10] = high dose (3 or 8 mmol/kg diet)
[11] = high dose (PEITC, SFN 3 mmol/kg diet; PEITC-NAC, SFN-NAC, NAC 8 mmol/kg diet)
[12] = low dose (1.5 or 4 mmol/kg diet)
[13] = low dose (PEITC, SFN 1.5 mmol/kg diet; PEITC-NAC, SFN-NAC 4 mmol/kg diet)

Row | SMILES | mean numbers of lung adenomas compared with carcinogen control mice [5] | Adenocarcinoma Incidence (%) [5, 10] | Adenocarcinoma Multiplicity mean ± SD [5, 10] | Adenoma Incidence (%) [5, 10] | aberrant crypt foci formation [6] | Adenoma Multiplicity mean ± SD [5, 11] | Adenocarcinoma Incidence (%) [5, 12] | Adenocarcinoma Multiplicity mean ± SD [5, 12] | Adenoma Incidence (%) [5, 12] | Adenoma Multiplicity mean ± SD [5, 13] | also measured
1 | CC(=O)N[C@@H](CSC(=S)NCc1ccccc1)C(=O)O [BITC-NAC, benzyl isothiocyanate-NAC] | – | – | – | – | – | – | – | – | – | – | stability in diet [1]: stable for at least one month; tumor multiplicity ([2]; 15 μmol/g diet after B(a)P, at termination, B(a)P control 6.1±3.1): 3.7±2.9 tumors/mouse; Tumor Incidence (%), lung adenoma ([2]; 15 μmol/g diet from 2 days after 20 μmol B(a)P, 140 days): 94%; Tumor multiplicity (no. of tumors/mice), lung adenoma ([2]; 15 μmol/g diet from 2 days after 20 μmol B(a)P, 140 days, mean ± SD): 3.72 ± 2.90^b no. of tumors/mice; average body weight at termination ([2]; 15 μmol/g diet, controls 25.8 g and 25.7 g): 22.9 g; tumor reduction ([2]; versus B(a)P control diet group, at termination): 39%; increase in apoptosis, non-tumorous lung tissue ([3]; after 140 days): 2.4 fold; apoptotic index, fold elevation ([3]; lung tissue at 84 days, before tumors appeared): approximately 2 fold; phosphorylation of p53 at Ser15 (p53 [4]): moderate increase; JNK 1 (p46) phosphorylation level (JNK 1 and 2): increase; JNK 2 (p54) phosphorylation (JNK 1 and 2): only slightly induced
2 | CC(=O)N[C@@H](CS)C(=O)O [NAC, N-acetyl-L-cysteine] | decreases were significant | 4/8 (50%) | 1.10 ± 1.51 | 8/8 (100%) | – | – | – | – | – | – | –
3 | S=C=NCCc1ccccc1 [PEITC, phenethyl isothiocyanate] | – | 6/32 (19%)* | – | 31/32 (96.90%) | inhibited foci formation | 8.81 ± 3.96 | 7/20 (35%) | 1.15 ± 1.85 | 19/20 (95%) | 7.25 ± 4.43 | Overall % Survival ([5]; high dose, adjusted for scheduled sacrifices, control 29.8%): 21.10%; p53 transactivation (p53 [7]): induces p53 transactivation in a dose- and time-dependent manner; induction of apoptosis [8]: did not induce apoptosis
4 | C[S+]([O-])CCCCN=C=S (centres unmarked) [SFN, sulforaphane] | – | 10/32 (31.3%) | 0.84 ± 1.48 | 30/32 (93.8%) | inhibited foci formation | 8.84 ± 5.72 | 4/20 (20%) | 0.30 ± 0.64 | 20/20 (100%) | 9.25 ± 4.15 | malignant tumor multiplicity ([5]; low dose groups, initiated control group 2.1): 0.9 tumors/mouse
5 | CC(=O)NC(CSC(=S)NCCCC[S+](C)[O-])C(=O)O (centres unmarked) [SFN-NAC, sulforaphane-NAC] | decreases were significant | 5/31 (16.13%) | 0.42 ± 1.01 | 31/31 (100%) | – | 9.06 ± 5.35 | 2/19 (10.53%) | 0.32 ± 0.92 | 18/19 (94.74%) | 8.53 ± 4.32 | –
6 | CCCCCCCCCCCCCC(=O)O[C@@H]1[C@@H](C)[C@@]2(O)[C@@H](C=C(CO)C[C@]3(O)C(=O)C(C)=C[C@@H]23)[C@@H]2C(C)(C)[C@]12OC(C)=O [TPA, 12-O-tetradecanoylphorbol-13-acetate] | – | – | – | – | – | – | – | – | – | – | AP-1 binding activity [9]: specifically induced; cell growth / apoptosis with TPA alone (A549 cells): appear to be growing well; also recorded: did not cause apoptosis in A549 cells
